This note sets out measurements from ChEMBL document CHEMBL1143144, “Antitumor studies. Part 4: Design, synthesis, antitumor activity, and molecular docking study of novel 2-substituted 2-deoxoflavin-5-oxides, 2-deoxoalloxazine-5-oxides, and their 5-deaza analogs” (Bioorg Med Chem, 2008).

For one test, the system named is CCRF-HSB-2. The test is described as follows: Antitumor activity against human CCRF-HSB2 cells by MTT assay. It counts as functional, cell-based.
In another test the test system is KB. The test is described as follows: Antitumor activity against human KB cells by MTT assay. In kind it is functional, cell-based.

≈ marks a conversion by molar mass, not a printed value.

With `CSc1nc2nc3ccccc3cc2c(=O)[nH]1`, the 50% inhibitory concentration (IC50) with CCRF-HSB-2 was determined as 23.2 µg/mL (≈ 95.4 µM); with KB it was 44.1 µg/mL (≈ 181 µM).

For `CSc1nc2n(C)c3c(C)cccc3[n+]([O-])c-2c(=O)n1`, the results for the IC50 with CCRF-HSB-2 and with KB were 1.46 µg/mL (≈ 5.06 µM) and 0.61 µg/mL (≈ 2.12 µM), respectively.

Take `COc1ccc2c(c1)[n+]([O-])c1c(=O)nc(SC)nc-1n2C`: the values for the IC50 in the test on CCRF-HSB-2 and in the test with KB were 9.84 µg/mL (≈ 32.3 µM) and 11 µg/mL (≈ 36.1 µM), respectively.

Regarding `COc1ccc2c(c1)n(C)c1nc(SC)nc(=O)c-1[n+]2[O-]`, the IC50 with CCRF-HSB-2 is 10 µg/mL (≈ 32.9 µM); with KB, 12.5 µg/mL (≈ 41.1 µM).

For `CSc1nc2n(C)c3ccc(C)cc3[n+]([O-])c-2c(=O)n1`, the IC50 was found to be 17.1 µg/mL (≈ 59.3 µM) in the test on CCRF-HSB-2 and 27.7 µg/mL (≈ 96.1 µM) in the test with KB.

Regarding `CSc1nc2n(C)c3ccccc3[n+]([O-])c-2c(=O)n1`, the IC50 in the test with CCRF-HSB-2 came out at 1.56 µg/mL (≈ 5.69 µM); with KB, 1.44 µg/mL (≈ 5.25 µM).

With `CNc1nc2n(C)c3ccccc3cc-2c(=O)n1`, the figures for the IC50 with CCRF-HSB-2 and with KB were 2.7 µg/mL (≈ 11.2 µM) and 14.5 µg/mL (≈ 60.3 µM), respectively.

Consider `CCn1c2nc(=O)[nH]c(=O)c-2nc2ccccc21`, for which the IC50 in the test on CCRF-HSB-2 amounted to 1.57 µg/mL (≈ 6.48 µM); in the test on KB it was 1.89 µg/mL (≈ 7.8 µM).

On to `CCn1c(SC)nc2nc3c(C)cc(C)cc3[n+]([O-])c2c1=O`, for which the IC50 with CCRF-HSB-2 came out at 5.9 µg/mL (≈ 18.6 µM); in the test on KB it was 10 µg/mL (≈ 31.6 µM).

`Cc1ccc2c(c1)[n+]([O-])c1c(=O)nc(NCCO)nc-1n2C`: the IC50 was determined as 1.46 µg/mL (≈ 4.85 µM) with CCRF-HSB-2 and 1.7 µg/mL (≈ 5.64 µM) in the test with KB.

Regarding `CSc1nc2nc3ccccc3[n+]([O-])c2c(=O)n1C`, the IC50 came out at 8.63 µg/mL (≈ 31.5 µM) in the test on CCRF-HSB-2 and 9.31 µg/mL (≈ 33.9 µM) in the test with KB.

Consider `CN(C)c1nc2nc3ccccc3nc2c(=O)[nH]1`, for which the IC50 was determined as 51.2 µg/mL (≈ 212 µM) in the test on CCRF-HSB-2 and 63.1 µg/mL (≈ 262 µM) in the test with KB.

As for `COc1ccc2nc3nc(N4CCOCC4)[nH]c(=O)c3nc2c1`, the half-inhibitory concentration (IC50) with CCRF-HSB-2 was determined as 41.4 µg/mL (≈ 132 µM); with KB it was 71.7 µg/mL (≈ 229 µM).

Consider `CSc1nc2n(C)c3ccc(Cl)cc3[n+]([O-])c-2c(=O)n1`, for which the IC50 with CCRF-HSB-2 was 6.66 µg/mL (≈ 21.6 µM); in the test on KB it was 10.8 µg/mL (≈ 35 µM).

With `CCOC(=O)Cn1c(SC)nc2nc3ccccc3[n+]([O-])c2c1=O`, the IC50 with CCRF-HSB-2 worked out at 34.2 µg/mL (≈ 98.7 µM); in the test with KB, 54.8 µg/mL (≈ 158 µM).

With `CSc1nc2nc3ccc(C)cc3[n+]([O-])c2c(=O)[nH]1`, the IC50 in the test with CCRF-HSB-2 stood at 5.86 µg/mL (≈ 21.4 µM); with KB, 5.8 µg/mL (≈ 21.1 µM).

As to `CSc1nc2nc3c(C)cc(C)cc3[n+]([O-])c2c(=O)[nH]1`, the IC50 in the test on CCRF-HSB-2 amounted to 6.29 µg/mL (≈ 21.8 µM); with KB, 11.8 µg/mL (≈ 40.9 µM).

As to `COc1ccc2nc3nc(SC)[nH]c(=O)c3[n+]([O-])c2c1`, the IC50 in the test with CCRF-HSB-2 was found to be 4.11 µg/mL (≈ 14.2 µM); with KB it was 5.35 µg/mL (≈ 18.4 µM).

For `CSc1nc2n(C)c3cc(C)c(C)cc3[n+]([O-])c-2c(=O)n1`, the values for the IC50 in the test with CCRF-HSB-2 and in the test with KB were 14.3 µg/mL (≈ 47.3 µM) and 30 µg/mL (≈ 99.2 µM), respectively.

`CNc1nc2n(C)c3ccccc3[n+]([O-])c-2c(=O)n1`: the IC50 was 1.74 µg/mL (≈ 6.76 µM) with CCRF-HSB-2 and 6.93 µg/mL (≈ 26.9 µM) in the test on KB.

Consider `CCn1c2nc(NCC(C)C)nc(=O)c-2[n+]([O-])c2ccccc21`, for which the IC50 came to 6 µg/mL (≈ 19.1 µM) in the test with CCRF-HSB-2 and 8.1 µg/mL (≈ 25.8 µM) with KB.

For the compound `Cn1c2nc(=O)[nH]c(=O)c-2nc2ccccc21`, the IC50 turned out to be 1.8 µg/mL (≈ 7.89 µM) in the test with CCRF-HSB-2 and 2.1 µg/mL (≈ 9.2 µM) in the test on KB.

As to `CCn1c2nc(SC)nc(=O)c-2[n+]([O-])c2ccccc21`, the IC50 in the test with CCRF-HSB-2 was found to be 3.72 µg/mL (≈ 12.9 µM); in the test on KB, 8.19 µg/mL (≈ 28.4 µM).

In the case of `CSc1nc2nc3ccccc3[n+]([O-])c2c(=O)[nH]1`, the figures for the IC50 with CCRF-HSB-2 and with KB were 6.77 µg/mL (≈ 26 µM) and 6.76 µg/mL (≈ 26 µM), respectively.

`COc1ccc2c(c1)[n+]([O-])c1c(=O)[nH]c(=O)nc-1n2C`: the figures for the IC50 with CCRF-HSB-2 and in the test on KB were 5.1 µg/mL (≈ 18.6 µM) and 6.2 µg/mL (≈ 22.6 µM), respectively.

Take `CCn1c2nc(SC)nc(=O)c-2[n+]([O-])c2cc(C)ccc21`: the IC50 was 34.7 µg/mL (≈ 115 µM) in the test on CCRF-HSB-2 and 46.3 µg/mL (≈ 153 µM) in the test on KB.

For the compound `Cc1ccc2c(c1)[n+]([O-])c1c(=O)nc(NC3CCCCC3)nc-1n2C`, the 50% inhibitory concentration (IC50) in the test with CCRF-HSB-2 was found to be 7.1 µg/mL (≈ 20.9 µM); in the test on KB it was 33.7 µg/mL (≈ 99.3 µM).

As to `COc1ccc2c(c1)[n+]([O-])c1c(=O)nc(N3CCCCC3)nc-1n2C`, the 50% inhibitory concentration (IC50) in the test with CCRF-HSB-2 worked out at 6.18 µg/mL (≈ 18.1 µM); with KB it was 27.6 µg/mL (≈ 80.9 µM).

With `CSc1nc2nc3ccc(C)cc3[n+]([O-])c2c(=O)n1C`, the IC50 in the test with CCRF-HSB-2 was 7.74 µg/mL (≈ 26.8 µM); in the test with KB, 13.4 µg/mL (≈ 46.5 µM).

`CSc1nc2nc3c(C)cc(C)cc3[n+]([O-])c2c(=O)n1C`: the IC50 was found to be 8.96 µg/mL (≈ 29.6 µM) in the test with CCRF-HSB-2 and 14.2 µg/mL (≈ 47 µM) in the test with KB.

`Nc1ccn([C@@H]2O[C@H](CO)[C@@H](O)[C@@H]2O)c(=O)n1` [CYTARABINE]: the IC50 came out at 0.047 µg/mL (≈ 0.193 µM) with CCRF-HSB-2 and 0.23 µg/mL (≈ 0.946 µM) in the test on KB.

What is called IC50 is the concentration needed to halve the response being measured.
